We go through 21 compounds from patent US20110275673A1, “INHIBITORS OF SPHINGOSINE KINASE 1” (priority 2008, published 2011).

Structures are written as SMILES.

The assay concerns the target T1, SPHK-1 (Homo sapiens, UniProt Q9NYA1).
T1 construct: purchased BPS Bioscience
The assay is described as follows: Reporter Assay: sphingosine kinase conversion of fluorescein-labeled sphingosine, read on Lab Chip 3000. Format: biochemical. The following applies: 2 μM Fl-sphingosine, 25 μM ATP, 300 ng/ml SK1, 1 hour at room temperature; from percent conversion of substrate to product; read-out: SPHK-1 IC50 (n =). The protocol: Sphingosine kinase is a 49 kDa enzyme that catalyzes the formation of sphingosine-1-phosphate (S-1-P) from sphingosine.
Fluorescein labeled sphingosine was obtained from Echelon Biosciences (S-100F). Buffer reagents (1 M Hepes, 10 triton x-100, 100% glycerol, dithiothreitol 1 M MgCl2, ATP, 500 mM EDTA and DMSO) were purchased from Sigma. Coating reagent (CR-3), was obtained from Caliper Life Sciences.
0.05% Triton X-100, 2.5% glycerol, 0.1% CR-3, and 0,6% DMSO. Termination butler included 100 mM Hepes (pH 7.5), 40 mM EDTA, 0.05% Triton X-100, 2.5% glycerol, 0.3% CR-3, and 0.6% DMSO.
All assay components were made in reaction buffer. […] The assaylvas allowed to incubate at room temperature sealed and protected from light for 1 hour.
After 1 hour, 10 μl of termination buffer was added to terminate, the reaction, and the plate was read on a Lab Chip 3000. The plate was read for one cycle. The Lab Chip separated substrate and product based on charge.
Results were calculated based on percent conversion of substrate to product using the following formula: […]
Percent inhibition and IC50's for compounds of the invention were determined using the percent conversion values obtained horn the Lab Chip.

T1 sequence (Q9NYA1 whole entry): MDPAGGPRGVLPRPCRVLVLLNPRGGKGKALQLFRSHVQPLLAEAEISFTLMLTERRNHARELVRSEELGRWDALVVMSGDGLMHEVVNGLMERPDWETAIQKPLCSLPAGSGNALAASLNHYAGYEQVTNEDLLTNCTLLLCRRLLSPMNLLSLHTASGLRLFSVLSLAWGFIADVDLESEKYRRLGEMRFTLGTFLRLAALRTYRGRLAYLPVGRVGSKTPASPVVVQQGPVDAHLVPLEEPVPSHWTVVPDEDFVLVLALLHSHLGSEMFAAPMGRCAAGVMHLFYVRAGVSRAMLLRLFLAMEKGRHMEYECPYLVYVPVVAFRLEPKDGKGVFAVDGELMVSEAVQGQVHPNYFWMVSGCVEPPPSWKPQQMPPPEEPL

Regarding `CCCCCCCc1noc(-c2ccc(CNC(=O)[C@@H]3C[C@@H](O)CCN3)cc2)n1` [Example 102, (2S,4S)—N-(4-(3-heptyl-1,2,4-oxadiazol-5-yl)benzyl)-4-hydroxypiperidine-2-carboxamide], the IC50 came out at 2700 nM.
For `CCCCCCCc1ccc(-c2noc(CNC(=O)[C@H]3NCC[C@@H]3O)n2)cc1` [Example 77, (2S,3S)—N-((3-(4-Heptylphenyl)-1,2,4-oxadiazol-5-yl)methyl)-3-hydroxypyrrolidine-2-carboxamide] the value was 220 nM; for `O=C(NCc1ccc2oc(CCCOc3ccc(F)cc3)cc2c1)[C@H]1NCC[C@@H]1O` [Example 110, (2S,3S)—N-((2-(3-(4-Fluorophenoxy)propyl)benzofuran-5-yl)methyl)-3-hydroxypyrrolidine-2-carboxamide], 5200 nM.
The result for `CCCCCCCCc1ccc(NC[C@@H](N)CO)cc1` [Example 10, (R)-2-Amino-3-(4-octylphenyl-amino) propan-1-ol] reads 5000 nM; that for `CCCCc1ccc(-c2nc(-c3ccc(CNC(=O)[C@H]4NCC[C@@H]4O)cc3)no2)cc1` [Example 82, (2S,3S)—N-(4-(5-(4-Butylphenyl)-1,2,4-oxadiazol-3-yl)benzyl)-3-hydroxypyrrolidine-2-carboxamide], 3700 nM.
For `CCCCCCCCOc1ccc(NC(=O)[C@@H](N)[C@@H](C)O)cc1` [Example 18, (2S,3R)-2-Amino-3-hydroxy-N-(4-(octyloxy)phenyl) butanamide] the value was 460 nM.
In the case of `CCCCCCCCc1ccc(NC(=O)[C@H]([C@H](C)O)N(Cc2ccccc2)Cc2ccccc2)cc1` [Example 49, (2S,3S)-2-(dibenzyl-amino)-3-hydroxy-N-(4-octylphenyl) butanamide], the IC50 is more than 1000 nM.
For the compound `CCCCCCCCc1ccc(NC(=O)[C@@H](N)[C@H](C)O)cc1` [Example 32, (2S,3S)-2-Amino-3-hydroxy-N-(4-octylphenyl) butanamide], the half-inhibitory concentration (IC50) came to 1100 nM.
On to `O=C(Nc1ccc(CCCCCOc2ccc(F)cc2)cc1)[C@H]1NCC[C@@H]1O` [Example 24, (2S,3S)-N-(4-(5-(4-Fluorophenoxy)pentyl)phenyl)-3-hydroxy-pyrrolidine-2-carboxamide], for which the IC50 turned out to be 190 nM.
For `CCCCCCS(=O)(=O)Cc1ccc(NC(=O)[C@H]2NCC[C@@H]2O)cc1` [Example 46, (2S,3S)-N-(4-(hexylsulfonyl-methyl)phenyl)-3-hydroxy-pyrrolidine-2-carboxamide], the IC50 is more than 10000 nM.
The result for `O=C(NCc1ccc(-n2cc(CCc3ccc(F)cc3)nn2)cc1)[C@H]1NCC[C@@H]1O` [Example 68, (2S,3S)—N-(4-(4-(4-Fluorophenethyl)-1H-1,2,3-triazol-1-yl)benzyl)-3-hydroxypyrrolidine-2-carboxamide] reads 7300 nM.
As for `CCCCCCSCc1ccc(NC(=O)[C@H]2NCC[C@@H]2O)cc1` [Example 39, (2S,3S)-N-(4-(hexylthiomethyl)phenyl)-3-hydroxy-pyrrolidine-2-carboxamide], the concentration for half-maximal inhibition (IC50) was 110 nM.
For the compound `CCCCCCCCc1cc2c(F)c(CNC(=O)[C@H]3NCC[C@@H]3O)ccc2o1` [Example 121, (2S,3S)—N-((4-Fluoro-2-octylbenzofuran-5-yl)methyl)-3-hydroxypyrrolidine-2-carboxamide], the IC50 is 510 nM.
For `O=C(Nc1ccc(CCCOc2ccc(F)cc2)cc1)[C@H]1NCC[C@@H]1O` [Example 23, (2S,3S)-N-(4-(3-(4-Fluorophenoxy)propyl)phenyl)-3-hydroxy-pyrrolidine-2-carboxamide] the value was 1500 nM; for `CCCCCCOCc1ccc(NC(=O)[C@H]2NCC[C@@H]2O)cc1` [Example 19, (2S,3S)-N-(4-(Hexyloxy-methyl)phenyl)-3-hydroxy-pyrrolidine-2-carboxamide], 990 nM.
Turning to `CCCCCCCCOCc1ccc(NC(=O)[C@H]2NCC[C@@H]2O)cc1` [Example 21, (2S,3S)-3-Hydroxy-N-(4-(octyloxymethyl)phenyl) pyrrolidine-2-carboxamide], the 50% inhibitory concentration (IC50) was determined as 4.9 nM.
For `CCCCCCCCc1nc(-c2ccc(CNC(=O)[C@H]3NCC[C@@H]3O)cc2)cs1` [Example 103, (2S,3S)-3-hydroxy-N-(4-(2-octylthiazol-4-yl)benzyl)pyrrolidine-2-carboxamide] the value was 49 nM; for `CCCCCCCCc1ccc(-c2ccc(NC(=O)[C@@H](N)[C@@H](C)O)cc2)cc1` [Example 59, (2S,3R)-2-Amino-3-hydroxy-N-(4′-octylbiphenyl-4-yl)butanamide], 1100 nM; for `O=C(Nc1ccc(CCCCCCCOc2ccc(F)cc2)cc1)[C@H]1NCC[C@@H]1O` [Example 25, (2S,3S)-N-(4-(7-(4-Fluorophenoxy)heptyl)phenyl)-3-hydroxy-pyrrolidine-2-carboxamide], 370 nM.
For `CC(C)CCCCCCc1ccc(NC(=O)[C@@H](N)[C@@H](C)O)cc1` [Example 16, (2S,3R)-2-Amino-3-hydroxy-N-(4-(7-methyloctyl)phenyl) butanamide] the value was 150 nM; for `CCCCCCCCCc1ccc(NC(=O)[C@@H](N)[C@@H](C)O)cc1` [Example 14, (2S,3R)-2-Amino-3-hydroxy-N-(4-nonylphenyl) butanamide], 180 nM.

Usually IC50 stands for the midpoint of a concentration-inhibition curve.
